Patent US11180783B2, “Method for producing chiral amines” (VITO NV, priority 2017, dated 2021)

Legend:
[1] = system: TA_v2; format: biochemical
Method: Reaction was performed in 600 mL volume containing 2 mg/mL of TA_v2 powder, 250 mM AD 6, 10 mM BA substrate (dissolved in DMSO) and 0.1 mM PLP in 100 mM CHES buffer, pH 9.5. The final DSMO concentration was 5% (v/v). After 16 h of reaction, 550 mL of reaction mixture was transferred into the membrane unit and 2 intermittent nanofiltration tests were performed. The remaining 50 mL of reaction mixture was used as control without filtration. After the first nanofiltration (6 h duration, DESAL® DK, 20 bar), the collected permeate and the retentate were mixed, and 5 mM of additional BA substrate were added. Additional substrate was added also to the control condition. After 16 h of reaction, the second nanofiltration was performed (5 h duration, DuraMem® 200, 20 bar). Reaction permeate and retentate samples were taken after distinct time periods and prepared for quantitative analysis.
Addition of BA (5 mM) was made to the enzymatic tank E-1 after 24 h reaction. The second nanofiltration was run after 39 h reaction (DuraMem® 200 membrane, 20 bar).

[2] = system: TA_3HMU; assay: asymmetric amine synthesis (transamination) with TA_3HMU; format: biochemical, Ruegeria pomeroyi; conditions: for product formation from ketosubstrate with HMW amino donors: TA_3HMU, TLC or chiral GC analysis, no equilibrium shifting strategy; for BA conversion: crude extract lyophilized TA_3HMU (3 mg/mL), 25 times excess amine donor (250 mM)
Method: Asymmetric synthesis of chiral amines were performed using HMW amino donors and substrates 1a, 1b and 1c in the presence of TA_3HMU enzyme. […] However, performing the transamination reaction using substrates 1a or 1b, followed by a separation of the formed amine product using a membrane unit (8), according to advantageous aspects of the disclosure, will further shift the thermodynamic equilibrium to the product side of the reaction, thereby improving the product purity of the produced amine product.
Asymmetric amine synthesis experiments were performed using freeze-dried crude extract of TA_3HMU, provided by the company Enzymicals (Germany) and using PEG-A and PEG-C as amino donors (the activity of the enzyme being 970 mU/mg, photometric assay based on acetophenone detection). For a first test, a quite high amount of enzyme (12.5 mg/mL freeze dried powder, corresponding to about 6 mg/mL of total protein content) was used. In addition to poly ethylene glycol molecules (PEGs), the common and cheap LMW amino donor IPA was also investigated. Unlike PEGs, which can be retained by a porous (nanofiltration) membrane (3) with appropriate MWCO and/or pore size, the LMW amino donor IPA will also permeate forming the second solution (2).
Asymmetric amine synthesis experiments were also performed using amine transaminases TA_v2, purchased from c-LEcta GmbH, Leipzig, Germany. The purified enzyme was supplied as freeze-dried powder, the activity of TA_v2 being 1.73 U/mg. All reactions were performed in 1 mL volume containing 12.5-0.78 mg/mL of either TA_3HMU or TA_v2 powder, 10-500 mM amine donor (IPA, PEG-A and PEG-C, 10 mM BA model substrate (dissolved in DMSO) and 0.1 mM PLP in 100 mM CHES buffer, pH 9.5. The final DSMO concentration was 5% (v/v). […]
Substrate (BA) and product (MPPA) concentrations were determined by UHPLC (Thermo Scientific™) with UV detection at 194/210 nm. The chromatographic separation was achieved using 1 μL injection onto a C18 reversed-phase column (Waters Acquity UPLC® BEH C18 1.7 μm 2.1×50 mm). The column temperature was kept at 40° C. The gradient elution program is using mobile phase A 0.1% Formic Acid (FA) in Water (dH2O) and mobile phase B 0.1% FA in acetonitrile (ACN). The elution program was as follows: 0-4 min 99-30% A; 4-5 min 30-1% A; 5-5.1 min 1-99% A; 5.1-7.5 min 99% A; all at a flowrate of 400 μL/min. Amine donors AD 3 and AD 6 were analysed by HPLC with ELSD detector on Alltima HP C18 HL 5 μ, 4.6×250 mm. The eluents for PEGs analysis were: A) dH2O, 0.1% FA; B) ACN, 0.1% FA.
Furthermore, tests were conducted using different loadings of freeze-dried crude extract of TA_3HMU. Since the biotransformation could not be observed photometrically, continuous time-dependent following of the enzyme reaction was not possible. Therefore, laborious stopped enzyme assay providing only few measure points had to be employed. As expected, the initial reaction rate decreased when the enzyme loading was reduced. In presence of IPA donor amine, higher conversions were achieved. However, the reaction end-point decreased, reducing the enzyme amount (cf. FIG. 5.2c). […] Experimental conditions in FIG. 5.2: 10 mM BA; 250 mM AD; 0.1 mM PLP; 5% DMSO; 100 mM CHES buffer, pH 9.5, 30° C., 1000 rpm.
As already discussed hereinabove, using IPA as amine donor in transaminase reactions, a very high amount (e.g. 50-100 fold) amine donor excess is required, complicating downstream processing and possibly hampering the stability and activity of TAs (cf. e.g. Slabu, I. et al. in Catal. Today 306, 96-101 (2018); Savile, C. K. et al. in Science 329, 305-9 (2010); Dawood, A. W. H. et al. in ChemCatChem 10, 951-955 (2018)). TA_3HMU stability towards IPA and HMW ADs 3 and 6 was therefore explored. […] In contrast to IPA, in presence of bulky donor amines (cf. FIG. 5.3a and FIG. 5.3b). Experimental conditions in FIG. 5.3: 10 mM BA; 250 mM amine donor (AD 3, AD 6 or IPA); 0.1 mM PLP; 5% DMSO; 100 mM CHES buffer, pH 9.5, 30° C., 1000 rpm. […]

[3] = system: 3FCR; assay: glycine oxidase assay, TA screening towards HMW amino donors; format: biochemical, Ruegeria sp. TM1040; set-up: key: 0: no activity detected; conditions: wildtype TA; 20 mM amino donor (2.5 mM α-MBA), 2.5 mM glyoxylate, CHES pH 9.5, 37° C., absorbance 498 nm
Method: (§1) The HMW amino donors listed in Table 1 were tested in a feasibility study for reaction with TA enzymes (the HMW amino donors being commercially available and relatively cheap). More particularly, in this study the acceptance of HMW amino donors by TA enzymes was investigated running a glycine oxidase assay (as described by WeiB et al. in Anal. Chem. 2014, 86, 11847-11853). Thereto, 25 wild type transaminases were selected from a library of enzymes. Transaminase selection was made on the basis of TAs availability, broad substrate and amino donor scope, and stability.
(§2) Final substrate concentration amounted to 2.5 mM glyoxylate, 20 mM large amino donor, 7.28 U/mL horseradish peroxidase, 0.12 mg/mL purified glycine oxidase, 3 mM 4-amino antipyrine, and 4.7 mM vanillic acid in CHES buffer (100 mM) with pH 9.5, in total reaction volumes of 150 μL. Cells with empty pET28a(+) vector were applied as negative control. A reaction using 2.5 mM α-MBA was applied as positive control.
(§3) The above (photometric) assay is semiquantitative: the increasing absorbance (slope in FIG. 4.1) correlates with enzyme activity. An accurate quantification, however, was difficult to be performed as the assay is a multi-enzyme reaction.
(§4) TA_3HMU was then further tested with three commercially available HMW Jeffamines® (AD 3, 4 and 6).

[4] = system: MycVan; assay: as above; format: biochemical, Mycobacterium vanbaalenii; set-up: key: 0: no activity detected; conditions: wildtype TA; 20 mM amino donor (2.5 mM α-MBA), 2.5 mM glyoxylate, CHES pH 9.5, 37° C., absorbance 498 nm
Method: as §1, §2, §3, §4

[5] = system: AspOry; assay: as above; format: biochemical, Aspergillus oryzae; set-up: key: 0: no activity detected; conditions: wildtype TA; 20 mM amino donor (2.5 mM α-MBA), 2.5 mM glyoxylate, CHES pH 9.5, 37° C., absorbance 498 nm
Method: as §1, §2, §3, §4

[6] = system: Vfl; assay: as above; format: biochemical, Vibrio fluvialis JS17; set-up: key: 0: no activity detected; conditions: wildtype TA; 20 mM amino donor (2.5 mM α-MBA), 2.5 mM glyoxylate, CHES pH 9.5, 37° C., absorbance 498 nm
Method: as §1, §2, §3, §4

[7] = system: AspFum; assay: as above; format: biochemical, Aspergillus fumigatus; set-up: key: 0: no activity detected; conditions: wildtype (R)- TA; 20 mM amino donor (2.5 mM α-MBA), 2.5 mM glyoxylate, CHES pH 9.5, 37° C., absorbance 498 nm
Method: as §1, §2, §3, §4

[8] = system: 3HMU; assay: as above; format: biochemical, Ruegeria pomeroyi; set-up: key to TA activity towards amino donor (3HMU): 0: no activity detected; conditions: for TA activity towards amino donor (3HMU): wildtype (S)-selective TA, 20 mM amino donor (2.5 mM α-MBA), 2.5 mM glyoxylate, CHES pH 9.5, 37° C., absorbance 498 nm; for TA_3HMU activity / acceptance of amino donor, in words: glycine oxidase assay, semiquantitative
Method: as §1, §2, §3, §4

[9] = system: ATA 117; assay: as above; format: biochemical, Arthrobacter sp.; set-up: key: 0: no activity detected; conditions: wildtype TA; 20 mM amino donor (2.5 mM α-MBA), 2.5 mM glyoxylate, CHES pH 9.5, 37° C., absorbance 498 nm
Method: as §1, §2, §3, §4

[10] = on line nanofiltration (Desal-DK membrane) coupled with enzymatic reaction; format: biochemical; conditions: after 1.5 h, BA manually diafiltrated (40 mM)
Method: Diafiltration depends on the permeate flow rate since it occurs at the same rate of permeation. Therefore, reaction and permeation rates are to be matched. When solution of high concentrated substrate (BA 200 mM in DMSO) was subjected to diafiltration, BA was accumulating in the enzymatic tank 6 (FIG. 20).
Permeate flux was very low, therefore BA was manually diafiltrated (40 mM). After 1.5 h, 18% BA was converted.

## CC(N)CCc1ccccc1 (centres unmarked) [1M3P, 1-methyl-3-phenylpropylamine]
[1]; NF-2, DuraMem® 200, 20 bar
  additional product formation: 15%

## CC(=O)c1ccccc1 [1a, acetophenone]
[2]
  product formation from ketosubstrate with HMW amino donors: very low product formation

## CC(=O)c1ccccc1Br [1b, ortho-bromoacetophenone]
[2]
  product formation from ketosubstrate with HMW amino donors: very low product formation

## NCCCNCCNCCCN [AD 1, 1,2-bis(3-aminopropylamino)ethane]
[3]
  TA activity towards amino donor (3FCR): 0
[4]
  TA activity towards amino donor (MycVan): 0
[5]
  TA activity towards amino donor (AspOry): 0
[6]
  TA activity towards amino donor (Vfl): 0
[7]
  TA activity towards amino donor (AspFum): 0
[8]
  TA activity towards amino donor (3HMU): 0
[9]
  TA activity towards amino donor (ATA 117): 0

## NCCCN1CCN(CCCN)CC1 [AD 2, 1,4-Bis(3-aminopropyl)piperazine]
[4]
  TA activity towards amino donor (MycVan): 0
[7]
  TA activity towards amino donor (AspFum): 0
[8]
  TA_3HMU activity / acceptance of amino donor, in words: high activity

## NCCNC(=O)CCN(CCC(=O)NCCN)CCN(CCC(=O)NCCN)CCC(=O)NCCN [AD 5]
[3]
  TA activity towards amino donor (3FCR): 0
[4]
  TA activity towards amino donor (MycVan): 0
[5]
  TA activity towards amino donor (AspOry): 0
[6]
  TA activity towards amino donor (Vfl): 0
[7]
  TA activity towards amino donor (AspFum): 0
[8]
  TA activity towards amino donor (3HMU): 0
[9]
  TA activity towards amino donor (ATA 117): 0

## CC(=O)CCc1ccccc1 [BA, benzylacetone]
[2]
  product formation from ketosubstrate with HMW amino donors: qualitatively detected
[1]; 16 h after 5 mM substrate addition, NF reaction mixture and control (Reaction_2, Control-Reaction_2)
  additional BA converted: ~17%
[1]; Control-reaction_1, following 6 h, without filtration
  BA further converted: 2%
[1]; Desal-DK
  unreacted substrate lost in the permeate stream: ~58%
[1]; NF-1, 6 h nanofiltration, Desal DK, 20 bar
  additional substrate conversion: 10%
[1]; Reaction_1, 16 h, 10 mM BA, 250 mM AD 6, 2 mg/mL TA_v2
  BA converted: ~55%
[10]
  BA converted: 18%

## CC(C)N [IPA, isopropyl amine, reference compound]
[2]; 250 mM amine donor (25-fold excess), 10 mM BA, 3.125 mg/mL enzyme, pH 9.5, 30° C.
  TA_3HMU stability in presence of amine donor: fast inactivated

## CC(N)c1ccccc1 (stereo not drawn) [α-MBA, 1-phenylethylamine, reference compound]
[4]
  TA activity towards amino donor (MycVan): 0
[5]
  TA activity towards amino donor (AspOry): 0

## (highly flexible) poly(ethylene glycol) bis (3-aminopropyl) [AD 7]
[4]
  TA activity towards amino donor (MycVan): 0
[5]
  TA activity towards amino donor (AspOry): 0
[6]
  TA activity towards amino donor (Vfl): 0
[7]
  TA activity towards amino donor (AspFum): 0
[8]
  TA_3HMU activity / acceptance of amino donor, in words: high activity

## O,O′-bis(2-aminopropyl) polypropylene glycol-block-polyethylene glycol-block-polypropylene glycol [AD 6]
[2]; 10 mM BA
  BA conversion: 51%
[8]
  TA_3HMU activity / acceptance of amino donor, in words: broadly comparable to those achieved with the positive control
[8]; listed as PEG-C
  TA_3HMU activity / acceptance of amino donor, in words: best acceptance

## Poly(propylene glycol) bis(2-aminopropyl ether) [AD 3]
[2]; 10 mM BA
  BA conversion: 45%
[8]
  TA_3HMU activity / acceptance of amino donor, in words: broadly comparable to those achieved with the positive control
[8]; listed as PEG-A
  TA_3HMU activity / acceptance of amino donor, in words: best acceptance
